Measured values published in PubChem BioAssay AID488890 (Southern Research Specialized Biocontainment Screening …, 2010).
Results filed as inconclusive are left out. Calls of active or inactive are those of the source. No rule for the calls is given here.

These compounds were tested on Mycobacterium tuberculosis non-replicating, growth inhibition (assay: growth inhibition of non-replicating M. tuberculosis (AID 488890)).
For `Cc1cc(S(=O)(=O)c2ccc([N+](=O)[O-])cn2)ccc1Br`, the IC50 was 0.15 µM.
`O=C(N/N=C/c1ccc([N+](=O)[O-])s1)c1ccncc1` showed an IC50 of 1.77 µM.
`O=C(Oc1cccnc1)c1ccc(Cl)c(Cl)c1` showed an IC50 of 3.86 µM.
For `O=c1c2c(nc3c(-c4ccccc4)c[nH]n13)CCCC2`, the IC50 was 21.1 µM (inactive).
Compound `CC1=NN(C(=O)c2ccccc2)C(O)(c2ccc(Br)cc2)C1` (stereo not given) has an IC50 of 0.62 µM.
For `O=C(COC(=O)c1ccccc1)NC12CC3CC(CC(C3)C1)C2`, the IC50 was 24 µM (inactive).
`CCc1cccc(OCCCn2ccnc2)c1` was tested, and the IC50 was 18.7 µM (inactive).
`O=C(CCSc1ccccc1)N1CCCC1` was tested, and the IC50 was 3.33 µM.
`CC(=O)Nc1nc2ccccc2n1CCOc1ccccc1Cl` was tested, and the IC50 was 5.37 µM.
`CCC(=O)c1ccc(OC(=O)c2ccc(Br)o2)cc1` gave an IC50 of 9.81 µM.
`CC(C)[C@H](NC(=O)c1ccc(Br)cc1)C(=O)NC1CCCCC1` showed an IC50 of 1.37 µM.
`COc1ccc(CN2CCC(C(=O)Nc3ccc(Oc4cccnc4)cc3)CC2)c(C)c1C` was tested, and the IC50 was 7.54 µM.
`Brc1ccc(OCCCCN2CCCCC2)cc1` was tested, and the IC50 was 41.7 µM (inactive).
With `O=C(c1ccc(Br)o1)N1CCC(Cc2ccccc2)CC1` the IC50 was 3.77 µM.
With `CCC(C)[C@H]1CN=C(N)N1CCc1cccc2ccccc12` (stereo not given in full) the IC50 was 12.5 µM (inactive).
`O=[N+]([O-])c1ccc(N2CCN(Cc3ccc([N+](=O)[O-])o3)CC2)cc1` was tested, and the IC50 was under 0.1 µM.
`COC(=O)C(C)Oc1ccc2cc(-c3ccccc3)c(=O)oc2c1` (stereo not given) gave an IC50 of 4.96 µM.
`FC(F)(F)c1nnc2ccc(Cl)nn12` showed an IC50 of 1.56 µM.
In the case of `O=C(NC1CCCC1)c1nc2c(nnn2Cc2cccc(Cl)c2)c(=O)[nH]1`, the IC50 is reported as 19.8 µM (inactive).
`Clc1c(OCCCn2ccnc2)ccc2ccccc12` showed an IC50 of 9.74 µM.
`Clc1cccc(/C=N\Nc2nccs2)c1` was tested, and the IC50 was 12 µM (inactive).
`O=[N+]([O-])c1cc(-c2nc(-c3ccncc3)no2)cc([N+](=O)[O-])c1` showed an IC50 of 1.59 µM.
With `CC(C)(C)c1ccc(-c2nc(C#N)c(NCCCn3ccnc3)o2)cc1` the IC50 was 38.2 µM (inactive).
In the case of `C=C(C)C1CC=C(C)/C(=N/NC(=O)CNc2ccc(OCC)cc2)C1` (stereo not given), the IC50 is reported as > 25 µM (inactive).
`Cc1cc(C)n2nc(S(=O)(=O)Nc3c(Cl)cccc3Cl)nc2n1` was tested, and the IC50 was 3.15 µM.
`COc1ccccc1-c1nnc(NC(=O)c2ccc3ncsc3c2)o1` was tested, and the IC50 was 22.5 µM (inactive).
For `Cc1nc2scc(-c3ccccc3)c2c(=O)o1`, the IC50 was 14.8 µM (inactive).
`O=C1C=C(Nc2ccc(F)cc2)c2ccccc2C1=O` showed an IC50 of 5.36 µM.
In the case of `CCOc1ccc(OCC(=O)Nc2ccc(OC)cc2)cc1`, the IC50 is reported as 10.2 µM (inactive).
Work on `COC(=O)CCn1c(C)cc(C(=O)COc2ccccc2C(N)=O)c1C` yielded an IC50 of 9.88 µM.
For `O=C(Nc1nc(-c2cccs2)cs1)c1ccc([N+](=O)[O-])o1`, the IC50 was 2.08 µM.
`O=C(NNC(=O)C12CC3CC(CC(C3)C1)C2)c1cnccn1` was tested, and the IC50 was 32.2 µM (inactive).
In the case of `O=c1c2ccc(Cl)cc2nc(-c2ccc([N+](=O)[O-])cc2)n1O`, the IC50 is reported as 1.3 µM.
Work on `Cc1cc(N/N=C/c2ccc(F)cc2)nc(-n2nc(C)cc2C)n1` yielded an IC50 of 4.92 µM.
Work on `O=C(Nc1nnc(-c2ccccc2Cl)o1)c1ccc(S(=O)(=O)N2CCCCCC2)cc1` yielded an IC50 of 8.7 µM.
`CC(C)CCCn1c(O)c(/C=C2/C=CC=N2)c(=O)[nH]c1=O` showed an IC50 of 0.27 µM.
For `CC(=O)c1ccc(Sc2nnnn2-c2ccccc2)c([N+](=O)[O-])c1`, the IC50 was 19.4 µM (inactive).
For `O=C(CCc1ccccc1)N/N=C/c1cc(Br)ccc1O`, the IC50 was 0.44 µM.
In the case of `N#Cc1nc(-c2ccc(OCc3ccccc3)cc2)oc1NCCCn1ccnc1`, the IC50 is reported as 15.4 µM (inactive).
Work on `Cc1ccc(CSc2nnc(-c3cccnc3)o2)cc1` yielded an IC50 of 1.49 µM.
Compound `O=C(COC(=O)c1cc(Cl)ccc1O)c1ccc2c(c1)OCO2` has an IC50 of 6.61 µM.
With `C=CCn1c(C)cc(C2=NNC(=NCc3ccccc3)SC2)c1C` the IC50 was 7.71 µM.
For `CC(C)(C)OC(=O)N/N=C\c1ccc([N+](=O)[O-])s1`, the IC50 was 13.6 µM (inactive).
`COc1ccc(C(C#N)=C2C=CC(=NO)C=C2)cc1` was tested, and the IC50 was 16 µM (inactive).
`O=C1CC(N2CCN(c3ccccc3)CC2)C(=O)N1CCc1ccccc1` (stereo not given) was tested, and the IC50 was 14 µM (inactive).
`COc1ccc(C(=O)Nc2nnc(C3=COCCO3)o2)cc1` was tested, and the IC50 was 7.69 µM.
`Clc1cccc(-c2ccc(CNCc3ccccn3)o2)c1` gave an IC50 of 6.87 µM.
`COc1ccc2nc(C)cc(N/N=C/c3ccc(F)cc3)c2c1` was tested, and the IC50 was 7.75 µM.
`CCCCCC1CC(CC(=O)NC(=S)Nc2ccc([N+](=O)[O-])cc2)C(=O)O1` (stereo not given) gave an IC50 of 6.68 µM.
`CCCn1nnnc1NC(=O)COc1ccc(Br)cc1` gave an IC50 of 4.62 µM.
`CCc1ccc(C(=O)NC2CCCCC2)s1` was tested, and the IC50 was 0.94 µM.
With `Cc1cc(OCCCCn2ccnc2)cc(C)c1Cl` the IC50 was 4.68 µM.
`O=c1oc(-c2ccccc2[N+](=O)[O-])nc2ccccc12` was tested, and the IC50 was 18.9 µM (inactive).
For `Cc1ccc(NC(=O)C2CC2c2ccccc2)cc1` (stereo not given), the IC50 was 15 µM (inactive).
For `CCOc1ccc(NC(=O)COC(=O)C2(C)CC2(Cl)Cl)c([N+](=O)[O-])c1` (stereo not given), the IC50 was 10.8 µM (inactive).
For `O=C(CN1CCN(c2ccc([N+](=O)[O-])cc2)CC1)Nc1ccccn1`, the IC50 was 30.8 µM (inactive).
`O=C(Oc1cccc2cccnc12)c1ccc2c(c1)OCCO2` showed an IC50 of 0.96 µM.
`O=[N+]([O-])c1c(Nc2ccccn2)cc(Cl)c2nonc12` showed an IC50 of under 0.1 µM.
In the case of `Cc1ccc(NC(=O)CO/N=C/c2ccccc2C)c(C)c1`, the IC50 is reported as 13 µM (inactive).
In the case of `Cc1ccccc1C(=O)NN1CC(C(=O)OCc2ccc(Cl)c(Cl)c2)CC1=O` (stereo not given), the IC50 is reported as 14.1 µM (inactive).
Work on `O=C(NCC1CCCCC1)c1ccco1` yielded an IC50 of 2.18 µM.
In the case of `O=C(CC(=O)c1ccccc1O)c1cccc(F)c1`, the IC50 is reported as 8.89 µM.
Compound `CC1(C)CC(=O)c2cc(C(=O)NNc3ccccc3)c(=O)n(-c3ccccc3)c2C1` has an IC50 of 7.49 µM.
With `O=C(Nc1ccccc1C(=O)Nc1nnc(C(F)(F)F)s1)c1ccccc1` the IC50 was 1.27 µM.
Compound `C/C(=N\NC(=O)c1c[nH]c2ccccc12)c1ccccn1` has an IC50 of 6.38 µM.
In the case of `CC1COC(=O)C(NNc2ccc(Cl)c(Cl)c2)=N1` (stereo not given), the IC50 is reported as 8.67 µM.
In the case of `O=C(Oc1c(-c2ccco2)oc2ccccc2c1=O)c1cccnc1`, the IC50 is reported as 11.5 µM (inactive).
`CCCn1c(=O)c(C(=O)N/N=C/c2ccccc2F)c(O)c2ccccc21` was tested, and the IC50 was 13.3 µM (inactive).
`COC(=O)CCCCCN1C(=O)/C(=C\c2ccncc2)SC1=S` was tested, and the IC50 was 3.94 µM.
In the case of `COc1ccc(S(=O)(=O)NCc2ccc3c(c2)cc(C)n3C)cc1`, the IC50 is reported as 19.9 µM (inactive).
In the case of `O=C(NC(=S)N1CCc2ccccc21)c1ccccc1`, the IC50 is reported as 11.6 µM (inactive).
`O=[N+]([O-])c1cc(N=Nc2ccc3ccccc3c2)ccc1O` was tested, and the IC50 was 10.2 µM (inactive).
`O=C(Nc1cccc(Cl)c1)C1COc2ccccc2O1` (stereo not given) gave an IC50 of 7.86 µM.
`CCOc1ccccc1OC(=O)c1cc2ccccc2oc1=O` was tested, and the IC50 was 21.5 µM (inactive).
`COc1ccc(-c2nc3ccc(C)cc3c(=O)o2)cc1OC` was tested, and the IC50 was 2.95 µM.
`CC1CCCN(CCC(=O)c2ccc(Br)cc2)C1` (stereo not given) gave an IC50 of 1.16 µM.
Work on `O=C(N/N=C\c1ccc([N+](=O)[O-])o1)C1COc2ccccc2O1` (stereo not given) yielded an IC50 of 2.27 µM.
`O=C(CNC(=O)c1ccccc1Cl)N/N=C/c1ccc([N+](=O)[O-])s1` was tested, and the IC50 was 23.5 µM (inactive).
In the case of `O=C1Nc2ccc(Br)cc2/C1=C/C(=O)c1ccc2c(c1)OCO2`, the IC50 is reported as 10.6 µM (inactive).
With `O=C(Nc1nccs1)c1ccc(COc2ccc(Cl)cc2)o1` the IC50 was 10.4 µM (inactive).
In the case of `Cc1cccc(OCCN2CSC(=S)N(C)C2)c1`, the IC50 is reported as 16.4 µM (inactive).
For `CC(C)(C)c1cc(C(=O)N/N=C/c2ccc([N+](=O)[O-])s2)n[nH]1`, the IC50 was 5.5 µM.
In the case of `CC(NC(=O)OCc1ccccc1)c1ccccc1` (stereo not given), the IC50 is reported as 0.82 µM.
With `Cc1ccc(CCC(=O)Nc2ccc(C)c(C)c2)o1` the IC50 was 8.63 µM.
`COc1ccc(NC(=O)COc2ccccc2)cc1Cl` was tested, and the IC50 was 22.2 µM (inactive).
For `O=C(Cc1ccc([N+](=O)[O-])cc1)N/N=C/c1ccc([N+](=O)[O-])o1`, the IC50 was 21.8 µM (inactive).
Compound `Cc1cc(N/N=C/c2ccc(O)cc2O)nc(-n2nc(C)cc2C)n1` has an IC50 of 0.77 µM.
For `CCOC(=O)c1cc(-c2csc(COc3ccccc3Cl)n2)on1`, the IC50 was under 0.1 µM.
For `COc1ccc(-c2nnc(SCC(C)C)o2)cc1`, the IC50 was 0.9 µM.
In the case of `CCCC(NCC(O)COc1ccc(-c2ccccc2)cc1)c1ccccc1` (stereo not given), the IC50 is reported as 10.7 µM (inactive).
`CCSc1nsc(NC(=O)Nc2ccc(F)cc2F)n1` was tested, and the IC50 was 18.9 µM (inactive).
In the case of `Oc1oc(-c2ccco2)nc1C=Nc1cccc(Cl)c1`, the IC50 is reported as 7.88 µM.
With `N=C1/C(=C\c2coc3ccccc3c2=O)C(=O)N=C2SC=CN12` the IC50 was 21.4 µM (inactive).
In the case of `COc1ccc(-c2noc(CCC(=O)Nc3cccc(C)c3)n2)cc1`, the IC50 is reported as 11.5 µM (inactive).
Compound `N/C(=N\OC(=O)CC1CCCCC1)c1ccncc1` has an IC50 of 6.38 µM.
`CCc1nnc(NC(=O)c2cc3ccccc3oc2=O)s1` gave an IC50 of 2.75 µM.
`COc1cccc2sc(N3CCN(C(=O)c4ccc([N+](=O)[O-])o4)CC3)nc12` gave an IC50 of under 0.1 µM.
`Cn1ccsc1=NC(=O)c1ccccc1F` was tested, and the IC50 was 22.4 µM (inactive).
Compound `Cc1ccc(NC(C)C(=O)N/N=C/c2ccc([N+](=O)[O-])s2)cc1` (stereo not given) has an IC50 of 5.74 µM.
Compound `CCCCCn1c(=O)c(C(=O)Nc2cnccn2)c(O)c2ccccc21` has an IC50 of 2.55 µM.
With `CC(C)(C)c1ccccc1OCCOCCN1CCCCCC1` the IC50 was 16.2 µM (inactive).
In the case of `O=c1c2c([N+](=O)[O-])cc([N+](=O)[O-])cc2sn1-c1ccc(Br)cc1`, the IC50 is reported as 18.5 µM (inactive).
With `O=C(NC(=S)N1CCN(C/C=C/c2ccccc2)CC1)c1ccco1` the IC50 was 36.1 µM (inactive).
In the case of `CN1CCN(/N=C/c2ccc(-c3ccc([N+](=O)[O-])cc3Cl)o2)CC1`, the IC50 is reported as 26.9 µM (inactive).
`CCOC(=O)c1ccc(N=CC2=C(O)CC(C)(C)CC2=O)cc1` gave an IC50 of 3.85 µM.
`CCOC(=O)COc1ccc2ccccc2c1/C=C/[N+](=O)[O-]` gave an IC50 of 2.32 µM.
`CCOc1ccccc1C(=O)OCC(=O)Nc1nnc(-c2ccccc2)o1` was tested, and the IC50 was 21.7 µM (inactive).
In the case of `CN(C)CC/C=C1\c2cc(Cl)ccc2Sc2cc(F)c(F)cc21`, the IC50 is reported as 20.2 µM (inactive).
`O=C(Nc1nnc(-c2ccco2)o1)c1cccc2ccccc12` was tested, and the IC50 was 19.1 µM (inactive).
Work on `O=C(N/N=C/c1ccc([N+](=O)[O-])s1)c1ccccc1` yielded an IC50 of 5.44 µM.
In the case of `COc1ccc(CC(=O)OCC(=O)Nc2ccc(Br)cc2)cc1`, the IC50 is reported as 14.6 µM (inactive).
`CCOC(=O)C1=C(c2ccccc2)NC(N)=NC1c1ccc(OCc2ccc(Cl)cc2)c(OC)c1` (stereo not given) gave an IC50 of 4.25 µM.
For `COc1ccc(C(=O)C2CCCN(C(=O)c3ccc(CSC)o3)C2)cc1F` (stereo not given), the IC50 was 42.2 µM (inactive).
For `Cc1cc(NC(=O)C2CCCCC2)n(-c2nc3ccccc3[nH]2)n1`, the IC50 was 6.84 µM.
`CN1CCN(c2c(F)cc3c(=O)c(C(=O)O)cn4c3c2SCC4)CC1` was tested, and the IC50 was 16.8 µM (inactive).
